Reference: US9012475B2, “Method for enhancing anti-tumor effect of a microtubule-targeting drug, and a method for treatment of tumor” (Taiho Pharmaceutical Co., Ltd., priority 2013, dated 2015)

Key:
[1] = target: human Aurora B (Homo sapiens (Human), UniProt Q96GD4); test: Measurement of Aurora B kinase activity; type: biochemical; conditions: ATP 40 μM, 60 minutes
Procedure: (§1) The inhibitory activities of a test compound against Aurora A and Aurora B were measured according to the following method.
The concentration of the compound at which 50% of the phosphorylation reaction was suppressed was defined as IC50 value (nM).

[2] = target: human Aurora A (Homo sapiens (Human), UniProt O14965); test: Measurement of Aurora A inhibitory activity (IMAP fluorescence polarization kinase assay); type: biochemical; conditions: ATP 5 μM, 25° C., 50 minutes
human Aurora A, sequence (O14965 whole entry): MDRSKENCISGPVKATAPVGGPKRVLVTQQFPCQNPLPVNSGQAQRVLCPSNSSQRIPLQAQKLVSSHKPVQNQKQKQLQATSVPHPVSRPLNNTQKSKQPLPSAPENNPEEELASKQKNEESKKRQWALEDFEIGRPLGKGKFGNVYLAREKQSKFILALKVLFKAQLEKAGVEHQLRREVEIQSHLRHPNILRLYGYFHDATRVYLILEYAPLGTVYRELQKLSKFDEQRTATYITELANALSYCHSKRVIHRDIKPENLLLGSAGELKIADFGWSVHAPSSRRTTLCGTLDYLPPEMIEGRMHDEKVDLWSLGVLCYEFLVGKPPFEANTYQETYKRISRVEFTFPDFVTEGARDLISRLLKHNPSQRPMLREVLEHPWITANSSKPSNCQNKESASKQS
Procedure: as §1
Complementary DNA of human Aurora A was fused with a histidine tag at the amino terminal, inserted into an expression vector and highly expressed in Escherichia coli BL21-CodonPlus (DE3)-RIL strain. After Escherichia coli was recovered and lysed, human Aurora A protein fused with a histidine tag was allowed to bind to a nickel chelate column and eluted by imidazole from the column. An active fraction was desalted by a desalting column to obtain purified enzyme.
In measuring inhibitory activity of the compound, first, the test compound was serially diluted by dimethylsulfoxide (DMSO). […] To the mixture, IMAP (registered trade mark) Progressive Binding Reagent diluted 500× with IMAP (registered trade mark) Progressive Binding Buffer A (manufactured by Molecular Devices) was added to terminate the kinase reaction. […] Based on the obtained fluorescence polarization degree, the amount of phosphorylation reaction was obtained.

[3] = Evaluation of oral absorption property; type: in vivo, BALE/cA mice; conditions: oral administration in 0.5% HPMC, plasma 0.5-6 hours, LCMS
Procedure: A test compound was suspended or dissolved in 0.5% HPMC and orally administered to BALE/cA mice. At the time points of 0.5, 1, 2, 4 and 6 hours after oral administration, blood was sampled from the back of the eye to obtain blood plasma. The concentration of the compound in the obtained blood plasma was measured by LCMS and evaluated for oral absorption property.

[4] = tested on: human-derived uterus cancer cell strain HeLa-luc; conditions: Group 1: paclitaxel 10 mg/kg iv day 1 alone, 5 rats
Source text: Cells (1×10^7) of human-derived uterus cancer cell strain HeLa-luc (manufactured by PerkinElmer Co., Ltd.) having a luciferase gene introduced therein were subcutaneously grafted to the right abdomens of nude rats. At the time the volume of a tumor developed from grafted cells reached about 200 mm^3, the rats were divided into groups each consisting of 5 rats according to stratified randomization such that each group had almost the same tumor volume. […] To Group 2 and 3, paclitaxel was administered and, on the next day, Compound 1 (30 mg/kg) was orally administered twice per day for one day or 4 days (sequential administration, see FIG. 1 (A), Sequential treatment). To the rats of Group 4 and 5, paclitaxel was administered and, on the same day, Compound 1 (30 mg/kg) was orally administered twice per day for 2 days or 4 days (concurrent administration, see FIG. 1 (B), Concurrent treatment). Compound 1 was suspended or dissolved in 0.5% (w/v) hydroxypropyl methyl cellulose (HPMC). Paclitaxel was dissolved in Cremophor EL and anhydrous ethanol, diluted with physiological saline so as to obtain a predetermined concentration and put in use.
The presence or absence of a therapeutic effect was determined by measuring the major axis and minor axis of a tumor with time and obtaining a tumor volume (TV), relative tumor volume (RTV) and T/C (%) value (average relative tumor volume ratio of the treatment group to the control group) on day 10 after initiation of administration according to the following expressions. Tumor volume (TV)={(major axis)×(minor axis)^2}/2 Relative tumor volume (RTVn) on measurement day (n)=TVn/TV1 T/C(%)={(average RTVn of treatment group)/(average RTVn of control group)}×100
TV1 represents tumor volume at the administration initiation time
Furthermore, an individual in which a tumor disappeared was specified as CR (complete remission/complete response) and the number of cases was obtained.

human Aurora B, sequence (Q96GD4 whole entry): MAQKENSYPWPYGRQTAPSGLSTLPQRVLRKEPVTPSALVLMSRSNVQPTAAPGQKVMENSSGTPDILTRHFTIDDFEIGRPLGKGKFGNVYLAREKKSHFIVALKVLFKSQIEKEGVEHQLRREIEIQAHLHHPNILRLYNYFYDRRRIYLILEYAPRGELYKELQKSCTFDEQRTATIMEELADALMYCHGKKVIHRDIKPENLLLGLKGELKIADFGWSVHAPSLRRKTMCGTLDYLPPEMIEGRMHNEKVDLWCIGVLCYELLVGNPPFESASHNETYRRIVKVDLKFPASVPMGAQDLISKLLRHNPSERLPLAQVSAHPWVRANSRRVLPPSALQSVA
human Aurora B, sequence (Q9NQS7 803-916 partner): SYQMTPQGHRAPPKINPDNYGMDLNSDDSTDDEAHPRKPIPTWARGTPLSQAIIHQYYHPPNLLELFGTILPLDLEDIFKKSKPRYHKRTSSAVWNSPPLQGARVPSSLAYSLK

Row | IC50 [1] | IC50 [2] | oral absorption property (concentration in blood plasma) [3] | Structure (SMILES) | number of CR cases [4]
1 | 340 nM | 0.5 nM | – | Cc1cc(Nc2nc(CC3(C(=O)O)CCN(C(=O)c4cccc(C(F)(F)F)c4F)CC3)ccc2F)n[nH]1 [Production Example 2, 1-(2-fluoro-3-trifluoromethylbenzoyl)-4-((5-fluoro-6-(5-methyl-1H-pyrazol-3-ylamino)pyridin-2-yl)methyl)piperidine-4-carboxylic acid] | –
2 | 930 nM | 0.6 nM | satisfactory oral absorption property | COc1ccc(CC2(C(=O)O)CCN(C(=O)c3cccc(Cl)c3F)CC2)nc1Nc1cc(C)[nH]n1 [Production Example 11, 1-(3-chloro-2-fluorobenzoyl)-4-((5-methoxy-6-(5-methyl-1H-pyrazol-3-ylamino)pyridin-2-yl)methyl)piperidine-4-carboxylic acid] | –
3 | 260 nM | 0.4 nM | satisfactory oral absorption property | Cc1cc(Nc2nc(CC3(C(=O)O)CCN(C(=O)c4cccc(Cl)c4F)CC3)ccc2Cl)n[nH]1 [Production Example 12, 1-(3-chloro-2-fluorobenzoyl)-4-((5-chloro-6-(5-methyl-1H-pyrazol-3-ylamino)pyridin-2-yl)methyl)piperidine-4-carboxylic acid] | –
4 | 180 nM | 0.4 nM | satisfactory oral absorption property | Cc1cc(Nc2nc(CC3(C(=O)O)CCN(C(=O)c4cccc(Cl)c4F)CC3)ccc2F)n[nH]1 [Production Example 13, 1-(3-chloro-2-fluorobenzoyl)-4-((5-fluoro-6-(5-methyl-1H-pyrazol-3-ylamino)pyridin-2-yl)methyl)piperidine-4-carboxylic acid] | –
5 | 460 nM | 0.9 nM | – | CNC(=O)C1(Cc2ccc(F)c(Nc3cc(C)[nH]n3)n2)CCN(C(=O)c2cccc(Cl)c2F)CC1 [Production Example 14, 1-(3-chloro-2-fluorobenzoyl)-4-((5-fluoro-6-(5-methyl-1H-pyrazol-3-ylamino)pyridin-2-yl)methyl)-N-methylpiperidine-4-carboxyamide] | –

The next lines start with the compound.

Row | Structure (SMILES) | IC50 [1] | IC50 [2] | oral absorption property (concentration in blood plasma) [3] | number of CR cases [4]
6 | Cc1cc(Nc2nc(CC3(C(=O)NC4CC4)CCN(C(=O)c4cccc(Cl)c4F)CC3)ccc2F)n[nH]1 [Production Example 17, 1-(3-chloro-2-fluorobenzoyl)-N-cyclopropy1-4-((5-fluoro-6-(5-methyl-1H-pyrazol-3-ylamino)pyridin-2-yl)methyl)piperidine-4-carboxyamide] | 900 nM | 0.9 nM | – | –
7 | Cc1cc(Nc2nc(CC3(C(=O)N4CCC4)CCN(C(=O)c4cccc(Cl)c4F)CC3)ccc2F)n[nH]1 [Production Example 19, azetidin-1-yl(1-(3-chloro-2-fluorobenzoyl)-4-((5-fluoro-6-(5-methyl-1H-pyrazol-3-ylamino)pyridin-2-yl)methyl)piperidine-4-yl)methanone] | 880 nM | 1 nM | – | –
8 | Cc1cc(Nc2nc(CC3(c4noc(C)n4)CCN(C(=O)c4cccc(Cl)c4F)CC3)ccc2F)n[nH]1 [Production Example 22, (3-chloro-2-fluorophenyl)(4-((5-fluoro-6-(5-methyl-1H-pyrazol-3-ylamino)pyridin-2-yl)methyl)-4-(5-methyl-1,2,4-oxadiazol-3-yl)piperidine-1-yl)methanone] | 380 nM | 0.7 nM | satisfactory oral absorption property | –
9 | Cc1cc(Nc2nc(CC3(c4ncon4)CCN(C(=O)c4cccc(Cl)c4F)CC3)ccc2F)n[nH]1 [Production Example 24, (3-chloro-2-fluorophenyl)(4-((5-fluoro-6-(5-methyl-1H-pyrazol-3-ylamino)pyridin-2-yl)methyl)-4-(1,2,4-oxadiazol-3-yl)piperidine-1-yl)methanone] | 190 nM | 0.5 nM | – | –
10 | Cc1cc(Nc2nc(CC3(c4nnc(C)o4)CCN(C(=O)c4cccc(Cl)c4F)CC3)ccc2F)n[nH]1 [Production Example 28, (3-chloro-2-fluorophenyl)(4-((5-fluoro-6-(5-methyl-1H-pyrazol-3-ylamino)pyridin-2-yl)methyl)-4-(5-methyl-1,3,4-oxadiazol-2-yl)piperidine-1-yl)methanone] | 450 nM | 0.7 nM | – | –
11 | Cc1noc(C2(Cc3ccc(F)c(Nc4cc(C)[nH]n4)n3)CCN(C(=O)c3cccc(Cl)c3F)CC2)n1 [Production Example 29, (3-chloro-2-fluorophenyl)(4-((5-fluoro-6-(5-methyl-1H-pyrazol-3-ylamino)pyridin-2-yl)methyl)-4-(3-methyl-1,2,4-oxadiazol-5-yl)piperidine-1-yl)methanone] | 390 nM | 0.8 nM | – | –
12 | CC(=O)O[C@H]1C(=O)[C@@]2(C)[C@H]([C@H](OC(=O)c3ccccc3)[C@]3(O)C[C@H](OC(=O)[C@H](O)[C@@H](NC(=O)c4ccccc4)c4ccccc4)C(C)=C1C3(C)C)[C@]1(OC(C)=O)CO[C@@H]1C[C@@H]2O [paclitaxel, reference compound] | – | – | – | no CR cases
